Key:
[1] = tested on: rats; test: Elevated plus-maze test in the rat (Example 1); conditions: for significance of effect on number of entries, % of entries and time spent in the open arms as compared with vehicle control: Dexmedetomidine 10 μg/kg i.p. (increase), Fluoxetine 32 mg/kg i.p. (decrease), vs Group 1; for anxiolytic-like / anxiogenic-like activity in the Elevated Plus Maze Test (conclusion in words): rat, Dexmedetomidine 10 μg/kg i.p., alone or co-administered
Description: The test, reference, comparison or vehicle formulations were administered as a single intraperitoneal dose (i.p.).
Under standard artificial lighting (˜200 Lux), there was a contrast between the closed (obscure and safe) arms and the open (brightly illuminated and anxiogenic) arms of the maze.
The day preceding the experiment, rats were randomized based on their body weight.
The maze consisted of 4 arms of equal length and width (50×10 cm) arranged in the form of a plus sign (+). Two opposite arms were enclosed by 40 cm high walls (closed arms). The 2 other arms had no walls (open arms). The maze was raised approximately 65 cm above the floor. A rat was placed in the centre of the plus-maze and left to explore for 5 minutes.
The test was video-recorded and the number of entries into the open and closed arms and the time spent on the open arms were measured automatically using a video tracking system (EthoVision, Noldus). The % of open arm entries (open arm entries/total arm entries×100) were calculated. The total distance travelled was also reported.
10 rats were studied per group. The test was performed blind over 2 days with half of animals in each group each day.
Fluoxetine (32 mg/kg i.p.) administered 30 minutes before the test was used as comparison substance.
Clobazam (16 mg/kg i.p.), administered 30 minutes before the test was used as reference substance.
All animals received 2 consecutive administrations at 30 minutes before the test.
Data (for each parameter measured) with the test substance was analysed by comparing treated groups with vehicle controls using one-way ANOVA followed by post-hoc Dunnett's tests.
Data with the comparison reference substance (clobazam) was separately analysed by comparing each treated group with vehicle controls using unpaired Student's T-tests.

[2] = tested on: Yohimbine challenged rats; test: Elevated plus maze test in Yohimbine challenged rats (Example 2); type: in vivo, male Wistar rats; conditions: for In the open arms: Percentage change compared to Yohimbine administered group, Number of entries / In the open arms: Percentage change compared to Yohimbine administered group, Time spent: YOH 2.5 mg/kg; for Number of entries in the open arms (Mean ± SEM) / Time spent in the open arms (Mean ± SEM): rats given YOH 2.5 mg/kg i.p., N=12
Description: Treatment with Test Compounds: • As outlined in the table • Vehicle is Saline
After compound administration, the rat was placed on the platform opposite a closed arm. The number of entries and the time spent in each arm were recorded during a 5 min period (deliverables). The animal was considered as entered in arm when it placed its four paws into the arm.
The number of rats processed per day was about 20 in this model. Therefore, the experiment was split in several series.
Analysis of variance (ANOVA) was performed on the result data. Fisher's PLSD was used for
pairwise comparisons and p value <0.05 was considered significant.

[3] = Dexmedetomidine 10 μg/kg i.p., Fluvoxamine 3 mg/kg i.p., alone or combined (Group 7), diazepam 1 mg/kg i.p.
[4] = FLUVO 3 mg/kg, alone or with DEX 10 μg/kg
[5] = FLUVO 10 mg/kg, alone or with DEX 10 μg/kg
[6] = FLUVO 3 mg/kg i.p., alone or with DEX 10 μg/kg i.p.
[7] = FLUVO 10 mg/kg i.p., alone or with DEX 10 μg/kg i.p.
[8] = DEX 10 μg/kg or diazepam 1 mg/kg i.p.
[9] = DEX 10 μg/kg i.p., DIAZEPAM 1 mg/kg i.p., or YOH + vehicle, 5 min test
[10] = DEX 10 μg/kg or diazepam 1 mg/kg i.p., listed as DEX
[11] = Yohimbine 2.5 mg/kg i.p. + vehicle (Group 2) vs Group 1, p<0.0001

Q: Which “significance of effect on number of entries, % of entries and time spent in the open arms as compared with vehicle control” value [1] does the source give for `CNCCC(Oc1ccc(C(F)(F)F)cc1)c1ccccc1` (stereo not drawn) [Fluoxetine, N-methyl-3-(p-trifluoromethylphenoxy)-3-phenylpropylamine] here?
A: not significant

Q: What about the “change in total distance travelled in the four arms as compared with vehicle control” value ([1]; Fluoxetine 32 mg/kg i.p. alone or with Dexmedetomidine 10 μg/kg, vs vehicle control (Group 1)) of the same compound?
A: −65%

Q: What about the “change in total number of entries in the four arms as compared with vehicle control” value ([1]; Fluoxetine 32 mg/kg i.p., vs vehicle control (Group 1)) of the same compound?
A: −57%

Q: What about the “anxiolytic-like / anxiogenic-like activity in the Elevated Plus Maze Test (conclusion in words)” value ([1]; Fluoxetine 32 mg/kg i.p.) of the same compound?
A: tended to show anxiogenic like effect

Q: Which “anxiolytic-like effect in Yohimbine administered rats (conclusion in words)” value (shortened to “anxiolytic-like effect”) [2, 3] does the source give for `COCCCCC(=NOCCN)c1ccc(C(F)(F)F)cc1` [Fluvoxamine, 5-methoxy-1-[4-(trifluoromethyl)phenyl]-1-pentanone O-(2-aminoethyl) oxime] here?
A: not statistically significant

Q: And the “significance of improvement in number of entries in the open arms compared with Yohimbine-administered vehicle group” value ([2]; Fluvoxamine 3 mg/kg i.p. (Group 5))?
A: no significant improvement

Q: And the “significance of improvement in number of entries in the open arms compared with Yohimbine-administered vehicle group” value ([2]; Fluvoxamine 10 mg/kg i.p. (Group 6))?
A: no significant improvement

Q: And the “anxiolytic-like effect” value ([2]; Fluvoxamine 10 mg/kg i.p., in terms of the time spent in the open arms)?
A: significant anxiolytic-like effect

Q: And the “In the open arms: Percentage change compared to Yohimbine administered group, Number of entries” value (from here on “In the open arms: Percentage change … of entries”) [2, 4]?
A: +52%

Q: And the “In the open arms: Percentage change compared to Yohimbine administered group, Time spent” value (shortened to “In the open arms: Percentage change … Time spent”) [2, 4]?
A: +105%

Q: And the “In the open arms: Percentage change … Time spent” value ([2]; FLUVO 3 mg/kg, alone or with DEX 10 μg/kg, listed as FLUVO)?
A: +105%

Q: And the “In the open arms: Percentage change … of entries” value [2, 5]?
A: +76%

Q: And the “In the open arms: Percentage change … Time spent” value [2, 5]?
A: +232%

Q: And the “In the open arms: Percentage change … Time spent” value ([2]; FLUVO 10 mg/kg, alone or with DEX 10 μg/kg, listed as FLUVO)?
A: +232%

Q: And the “Number of entries in the open arms (Mean ± SEM)” value (“Number of entries … (Mean ± SEM)” below) [2, 6]?
A: 2.67 ± 0.22

Q: And the “Time spent in the open arms (Mean ± SEM)” value [2, 6]?
A: 21.39 ± 2.67

Q: And the “Number of entries … (Mean ± SEM)” value [2, 7]?
A: 3.08 ± 0.42

Q: And the “Time spent in the open arms (Mean ± SEM)” value [2, 7]?
A: 34.60 ± 5.24

Q: Which “anxiolytic-like effect” value [2, 3] does the source give for `CN1C(=O)CN=C(c2ccccc2)c2cc(Cl)ccc21` [DIAZEPAM, Diazepam] here?
A: reversed Yohimbine-induced anxiety

Q: And the “In the open arms: Percentage change … of entries” value [2, 8]?
A: +262%

Q: What about the “In the open arms: Percentage change … Time spent” value [2, 8] of the same compound?
A: +620%

Q: What about the “Number of entries … (Mean ± SEM)” value [2, 9] of the same compound?
A: 6.33 ± 0.28

Q: And the “Time spent in the open arms (Mean ± SEM)” value [2, 9]?
A: 74.98 ± 4.31

Q: Which results are given for `Cc1cccc([C@H](C)c2cnc[nH]2)c1C` [Dexmedetomidine, (+) 4-(S)-[1-(2,3-dimethylphenyl)ethyl]-1H-imidazole]?
A: anxiolytic-like effect in Yohimbine administered rats (conclusion in words) [2, 3]: not statistically significant; In the open arms: Percentage change compared to Yohimbine administered group, Number of entries [2, 8]: +48%; In the open arms: Percentage change compared to Yohimbine administered group, Time spent [2, 8]: +146%; In the open arms: Percentage change compared to Yohimbine administered group, Number of entries [2, 10]: +48%; In the open arms: Percentage change compared to Yohimbine administered group, Time spent [2, 10]: +146%; Number of entries in the open arms (Mean ± SEM) [2, 9]: 2.58 ± 0.26; Time spent in the open arms (Mean ± SEM) [2, 9]: 25.66 ± 3.84; significance of effect on number of entries, % of entries and time spent in the open arms as compared with vehicle control [1]: not significant; anxiolytic-like / anxiogenic-like activity in the Elevated Plus Maze Test (conclusion in words) ([1]; Fluoxetine 32 mg/kg i.p.): absence of anxiolytic-like activity

Q: `COC(=O)[C@@H]1[C@H]2C[C@H]3c4[nH]c5ccccc5c4CCN3C[C@@H]2CC[C@@H]1O` [YOH, Yohimbine] was tested. Which “change in number of entries to the open arms as compared to vehicle (saline) treated group” value [2, 11] did it give?
A: −63%

Q: What about the “change in time spent in the open arms as compared to vehicle (saline) treated group” value [2, 11] of the same compound?
A: −81%

Q: What about the “Number of entries … (Mean ± SEM)” value [2, 9] of the same compound?
A: 1.75 ± 0.25

Q: And the “Time spent in the open arms (Mean ± SEM)” value [2, 9]?
A: 10.42 ± 1.28

Reference: patent US20250319069A1, “METHODS FOR TREATING DEPRESSIVE STATES” (BioXcel Therapeutics, Inc., priority 2021, published 2025)
